In patent US10363239B2, “Method for inhibiting growth of cancer cells” (Pain Therapeutics, Inc., priority 2013, dated 2019):
Read-outs that look alike come from different tables or passages of the source.

Tests used:
adrenergic α1 receptors = assay: Standard receptor binding assay; settings: 10 μM concentration
[1] = target: FLNA pentapeptide of SEQ ID NO: 1 (Bn-VAKGL) (Homo sapiens, UniProt P21333); assay: FITC-NLX-based FLNA screening assay (inhibition of FITC-naloxone binding to Bn-VAKGL on streptavidin plates); settings: 10 nM FITC-NLX
mu opiate receptor (MOR) = assay: MOR agonist activity using [35S]GTPγS binding assay in striatal membranes; type: biochemical; settings: for MOR agonist activity ([35S]GTPγS binding), FLNA-Binding Compound as Agonist 1 μM + BFNA: 1 μM compound + 1 μM β-funaltrexamine
How it was run: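 Striatal membranes (200 μg) were preincubated 5 min at 30 °C in HEPES pH 7.5 with 100 mM NaCl, 1 mM MgCl2 and 0.5 nM [35S]GTPγS, then 5 min more with 0.1–10 μM compound. Gαo was immunoprecipitated and bound radioactivity counted by scintillation.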

sigma σ1 receptor = sigma σ1 receptor (Homo sapiens, UniProt Q99720); assay: Standard receptor binding assay; settings: 10 μM concentration
Sequence of sigma σ1 receptor (Q99720 whole entry): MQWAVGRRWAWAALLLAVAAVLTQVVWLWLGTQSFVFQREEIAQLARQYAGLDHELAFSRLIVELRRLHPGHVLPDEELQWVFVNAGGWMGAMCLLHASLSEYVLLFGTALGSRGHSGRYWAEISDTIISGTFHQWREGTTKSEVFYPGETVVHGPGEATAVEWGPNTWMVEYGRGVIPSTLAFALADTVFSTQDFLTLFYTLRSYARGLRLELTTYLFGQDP

[2] = system: non-small cell lung cancer cell lines; assay: Glucose utilization; type: cell-based, human; settings: data not shown
Protocol: (§1) To determine the effect of Compound C0105 on glucose utilization, the cancer and primary normal cells were plated extremely thinly (10%). Once cells attached, Compound C0105 was added at 0.1, 0.5, 1 or 5 nM in the medium twice daily (6 hours apart) for 4 days. The cells were serum-deprived (glucose deprived) for 2 hours. Cells were then rinsed with 1 ml PBS and glucose uptake was assessed by contacting the cells with [^3H]glucose (0.01 uCi/l ml) in Kreb's Ringer for 2 hours. Cells were then rinsed with 1 ml PBS 3 times, scraped off and their glucose content counted by liquid scintillation spectrophotometry.
. Primary lung fibroblast cells were used as control, non-cancerous cells to illustrate the difference in effects observed (FIG. 1C, FIGS. 1H-1I).

melanoma cells (A2058) = assay: [3H]glucose uptake; type: cell-based, human; settings: C0105 0.1-5 nM, other compounds 1 and 5 nM, twice daily for 4 days
Protocol: as §1, with “FIG. 1A through FIG. 1M illustrate the effects of various FLNA-binding compounds on glucose uptake in glioblastoma, melanoma, breast and pancreatic cancer cell lines, along with appropriate non-cancerous primary cell controls. Cells were grown in the absence or presence of 0.1-5 nM indicated compounds for 4 days. Following brief washes with PBS, cells were serum-deprived for 4 hours and then incubated in oxygenated Kreb's Ringer containing 0.1 μCi [^3H]glucose for 2 hours under constant oxygenation. The reaction was terminated by removal of the incubation medium, and cells were washed and scraped off to determine the amounts of [^3H]glucose in cells by scintillation spectrometry. […] N=5-6. […] . […] . To” for “To”
(§2) Both glioblastoma and melanoma cells were plated extremely thinly. Once cells attached, Compound C0105 was added at 0.1, 0.5, 1 and 5 nM, whereas the other compounds were present at 1 and 5 nM in the medium twice daily (6 hours apart) for 4 days. The cells were serum-deprived (glucose deprived) for 2 hours. Cells were then rinsed with 1 ml PBS and glucose uptake was assessed by contacting the cells with [3H]glucose (0.01 uCi/l ml) of Kreb's Ringer for 2 hours. Cells were then rinsed with 1 ml PBS 3 times, scraped off and their glucose contents counted by liquid scintillation spectrophotometry.

primary lung fibroblasts = assay: [3H]glucose uptake; type: cell-based, human; settings: C0105 0.1-5 nM, other compounds 1 or 5 nM; 4 days
Protocol: as §1, with “FIG. 1A through FIG. 1M illustrate the effects of various FLNA-binding compounds on glucose uptake in glioblastoma, melanoma, breast and pancreatic cancer cell lines, along with appropriate non-cancerous primary cell controls. Cells were grown in the absence or presence of 0.1-5 nM indicated compounds for 4 days. Following brief washes with PBS, cells were serum-deprived for 4 hours and then incubated in oxygenated Kreb's Ringer containing 0.1 μCi [^3H]glucose for 2 hours under constant oxygenation. The reaction was terminated by removal of the incubation medium, and cells were washed and scraped off to determine the amounts of [^3H]glucose in cells by scintillation spectrometry. […] N=5-6. […] . […] . To” for “To”
as §2

[3] = system: glioblastoma cells (U-87 MG); assay: [3H]glucose uptake; type: cell-based, human; settings: C0105 0.1-5 nM, other compounds 1 and 5 nM, twice daily for 4 days
Protocol: as §1, with “FIG. 1A through FIG. 1M illustrate the effects of various FLNA-binding compounds on glucose uptake in glioblastoma, melanoma, breast and pancreatic cancer cell lines, along with appropriate non-cancerous primary cell controls. Cells were grown in the absence or presence of 0.1-5 nM indicated compounds for 4 days. Following brief washes with PBS, cells were serum-deprived for 4 hours and then incubated in oxygenated Kreb's Ringer containing 0.1 μCi [^3H]glucose for 2 hours under constant oxygenation. The reaction was terminated by removal of the incubation medium, and cells were washed and scraped off to determine the amounts of [^3H]glucose in cells by scintillation spectrometry. […] N=5-6. […] . […] . To” for “To”
as §2

more than 65 receptors = assay: Standard binding assay on more than 65 receptors; settings: 10 μM concentration
[4] = target: biotinylated pentapeptide (Bn-VAKGL) of SEQ ID NO: 1 (Homo sapiens, UniProt P21333); assay: Inhibition of [3H]NLX binding to biotinylated pentapeptide (Bn-VAKGL); settings: read-out: IC50, inhibition of [3H]NLX binding to Bn-VAKGL; single affinity state
From the text: Data are derived from 6 studies, each using a different set of A7 cells.

[5] = system: BxPC3 pancreatic cancer cell implants; assay: Xenograft tumor size study; settings: gemcitabine at 50 mg/kg i.p. b.i.d.
[6] = FLNA-binding compound 0.01 μM, read-out: Percent Binding Inhibition
[7] = FLNA-binding compound 0.1 μM, read-out: Percent Binding Inhibition
[8] = FLNA-binding compound 1 μM, read-out: Percent Binding Inhibition
[9] = Series C-2, 0.1 μM compound, relative to DAMGO
[10] = Series C-2, 0.1 μM compound, [35S]GTPγS binding to Gαo, striatal membranes
[11] = Series C-2, 1 μM compound + 1 μM β-FNA
[12] = Series C-2, 1 μM compound + β-FNA, relative to DAMGO + BFNA
[13] = Series C-2, 1 μM compound, relative to DAMGO
[14] = Series C-2, 1 μM compound, [35S]GTPγS binding to Gαo, striatal membranes
[15] = 0.1 μM compound relative to DAMGO
[16] = 1 μM compound + BFNA relative to DAMGO + BFNA
[17] = 1 μM compound relative to DAMGO
[18] = read-out: Percent Binding Inhibition, FLNA-binding compound 0.01 μM
[19] = read-out: Percent Binding Inhibition, FLNA-binding compound 0.1 μM
[20] = read-out: Percent Binding Inhibition, FLNA-binding compound 1 μM

COc1ccc(S(=O)(=O)N2CCOC23CCNCC3)cc1 [Compound C0027]
Activity at adrenergic α1 receptors (adrenergic α1 receptors): antagonist
inhibition at 0.01 µM [1, 6]: 50.8%
inhibition at 0.1 µM [1, 7]: 61.2%
inhibition at 1 µM [1, 8]: 63.8%
% DAMGO (0.1 μM) (mu opiate receptor (MOR); [9]): 121.3%
MOR agonist activity, percent [35S]GTPγS binding at the stated compound concentration (mu opiate receptor (MOR); [10]): 233.2%
MOR agonist activity, percent [35S]GTPγS binding at the stated compound concentration (mu opiate receptor (MOR); [11]): 72.2%
% DAMGO + BFNA (mu opiate receptor (MOR); [12]): 164.5%
% DAMGO (1 μM) (mu opiate receptor (MOR); [13]): 115.0%
MOR agonist activity, percent [35S]GTPγS binding at the stated compound concentration (mu opiate receptor (MOR); [14]): 313.9%
Activity at sigma σ1 receptor (sigma σ1 receptor): antagonist

CC1CN(CC(O)COc2cccc(F)c2)CC(C)O1 (stereo not drawn) [Compound A0049]
inhibition at 0.01 µM [1, 6]: 46.2%
inhibition at 0.1 µM [1, 7]: 49.4%
inhibition at 1 µM [1, 8]: 49.3%
MOR agonist activity ([35S]GTPγS binding), FLNA-Binding Compound as Agonist 0.1 μM (mu opiate receptor (MOR); 0.1 μM compound): 232.3%
% DAMGO (0.1 μM) (mu opiate receptor (MOR); [15]): 118.4%
MOR agonist activity ([35S]GTPγS binding), FLNA-Binding Compound as Agonist 1 μM (mu opiate receptor (MOR); 1 μM compound): 370.3%
MOR agonist activity ([35S]GTPγS binding), FLNA-Binding Compound as Agonist 1 μM + BFNA (mu opiate receptor (MOR)): 107.1%
% DAMGO + BFNA (mu opiate receptor (MOR); [16]): 144.9%
% DAMGO (1 μM) (mu opiate receptor (MOR); [17]): 134.2%
Activity at sigma σ1 receptor (sigma σ1 receptor): antagonist

O=C1CN(Cc2ccccc2)C2(CCN(S(=O)(=O)c3cc(Cl)c(O)c(Cl)c3)CC2)N1 [Compound C0139M]
Glucose utilization [2]: decreased the elevated glucose utilization
% DAMGO (0.1 μM) (mu opiate receptor (MOR); Series C-1, 0.1 μM compound, relative to DAMGO): 106.2%
% DAMGO + BFNA (mu opiate receptor (MOR); Series C-1, 1 μM compound + β-FNA, relative to DAMGO + BFNA): 129.8%
% DAMGO (1 μM) (mu opiate receptor (MOR); Series C-1, 1 μM compound, relative to DAMGO): 102.2%
Glucose utilization (melanoma cells (A2058)): decreased the elevated glucose utilization
Glucose uptake / glucose content (primary lung fibroblasts): no significant inhibition in glucose content
Glucose utilization [3]: decreased the elevated glucose utilization
Binding to any of more than 65 assayed receptors (more than 65 receptors): no significant binding

CC(=O)c1ccc(S(=O)(=O)N2CC(CN(C)C)OC23CCN(C)CC3)cc1 (stereo not drawn) [Compound C0108M]
Glucose utilization [2]: decreased the elevated glucose utilization
inhibition at 0.01 µM [1, 18]: 54.6%
inhibition at 0.1 µM [1, 19]: 61.4%
inhibition at 1 µM [1, 20]: 68.7%
% DAMGO (0.1 μM) (mu opiate receptor (MOR); [9]): 108.7%
MOR agonist activity, percent [35S]GTPγS binding at the stated compound concentration (mu opiate receptor (MOR); [10]): 205.6%
MOR agonist activity, percent [35S]GTPγS binding at the stated compound concentration (mu opiate receptor (MOR); [11]): 76.9%
% DAMGO + BFNA (mu opiate receptor (MOR); [12]): 158.6%
% DAMGO (1 μM) (mu opiate receptor (MOR); [13]): 104.1%
MOR agonist activity, percent [35S]GTPγS binding at the stated compound concentration (mu opiate receptor (MOR); [14]): 258.5%
Glucose utilization (melanoma cells (A2058)): decreased the elevated glucose utilization
Glucose uptake / glucose content (primary lung fibroblasts): no significant inhibition in glucose content
Glucose utilization [3]: decreased the elevated glucose utilization

O=C1CC[C@@]2(O)[C@H]3Cc4ccc(O)c5c4[C@@]2(CCN3CC2CC2)[C@H]1O5 [Naltrexone]
IC50 [4]: 43 pM

COc1ccc(OCC(O)CN2CCc3ccccc3C2)cc1 (stereo not drawn) [Compound A0053]
Glucose utilization [2]: decreased the elevated glucose utilization
inhibition at 0.01 µM [1, 18]: 34.8%
inhibition at 0.1 µM [1, 19]: 40%
inhibition at 1 µM [1, 20]: 46.9%
MOR agonist activity ([35S]GTPγS binding), FLNA-Binding Compound as Agonist 0.1 μM (mu opiate receptor (MOR); 0.1 μM compound): 78.5%
% DAMGO (0.1 μM) (mu opiate receptor (MOR); [15]): 46.5%
MOR agonist activity ([35S]GTPγS binding), FLNA-Binding Compound as Agonist 1 μM (mu opiate receptor (MOR); 1 μM compound): 118.2%
MOR agonist activity ([35S]GTPγS binding), FLNA-Binding Compound as Agonist 1 μM + BFNA (mu opiate receptor (MOR)): 15.1%
% DAMGO + BFNA (mu opiate receptor (MOR); [16]): 46.2%
% DAMGO (1 μM) (mu opiate receptor (MOR); [17]): 47.5%
Glucose utilization (melanoma cells (A2058)): decreased the elevated glucose utilization
Glucose uptake / glucose content (primary lung fibroblasts): no significant inhibition in glucose content
Glucose utilization [3]: decreased the elevated glucose utilization

Nc1ccn([C@@H]2O[C@H](CO)[C@@H](O)C2(F)F)c(=O)n1 [gemcitabine]
Tumor growth [5]: slowed growth but did not shrink BxPC3 xenograft tumors
